Source: PubChem BioAssay AID463074 (Broad Institute, 2010)
Active and inactive are the calls of the source.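 The calls were made as follows: active = AC50 no more than tenfold above the top dose tested, or full inhibition at every dose with a flat fit (cut at about 19 µM in these data); inconclusive = flat curve fit with inhibition between 30% and 70%, or poor fit; inactive = AC50 more than tenfold above the top dose tested.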

These molecules were tested on HMLE_sh_eGFP viability, CellTiter-Glo luminescence, 72 h (assay: cytotoxicity in HMLE control line with eGFP shRNA, dose response, counter-screen for HMLE_sh_ECad selective toxicity project, cell-based, HMLE_sh_eGFP, luminescence (AID 463074);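 also: counterscreen control line to flag general toxicity for the HMLE_sh_ECad screen; potency for loss of viability as luminescence drops below DMSO wells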).

Compared with Cc1cc(-c2ccccc2)nc2cc(C(=O)N(Cc3ccccc3)Cc3ccccc3)nn12, O=C(COc1ccccc1-c1ccccc1)N/N=C/c1ccc2ccccc2c1 is 2.9-fold lower in AC50: 10.8 µM for the first, 3.67 µM for the second.

Compared with Cc1sc2ncnc(N3CCC(C(=O)N(C)CC(=O)Nc4ccc(Cl)c(C(F)(F)F)c4)CC3)c2c1C, COC(=O)c1cc(NC(=O)c2cc(-c3ccccc3Cl)oc2C(F)(F)F)ccc1N1CCOCC1 is 5.2-fold higher in AC50: 3.93 µM for the first, 20.3 µM for the second.

Going from Nc1ccc(N=Nc2ccccc2)c2ccccc12 to Oc1ccc(N=Nc2nc(-c3ccccc3)c(-c3ccccc3)[nH]2)cc1, the AC50 falls from 12.6 µM to 4.53 µM (2.8-fold).

CCCCCc1cc(=O)oc2c(C(CCN3CCCCC3)c3cc(OC)c(OC)c(OC)c3)c(OC)cc(OC)c12 (stereo not given) and CCCCCc1cc(=O)oc2c(C(CCN3CCCCC3)c3ccc4c(c3)OCO4)c(OC)cc(OC)c12 (stereo not given) are within 1.5-fold of each other in AC50: 6.95 µM for the first, 6.89 µM for the second.

Compared with CCOC(=O)CS(=O)(=O)c1nc(-c2ccccc2)cc(C(F)(F)F)n1, O=C(O)c1ccc(CSc2nc(-c3ccc(Cl)cc3)cc(C(F)(F)F)n2)cc1 is 3.1-fold higher in AC50: 3.25 µM for the first, 9.94 µM for the second.

CC1(C)C=Cc2c(ccc3c2OC[C@H](c2ccc(O)cc2O)C3)O1 and CCOC(=O)c1c(CSc2ccc(C)cc2)oc2ccc(O)cc12 are within 1.5-fold of each other in AC50: 4.43 µM for the first, 5.05 µM for the second.

CC(C)c1ccccc1OCC(O)CN(CC(O)COc1cccc2ccccc12)C(C)C (stereo not given) and COc1ccc(CNCCC(c2ccc(OC(C)C)cc2)c2ccccc2OC)cc1 (stereo not given) are within 1.5-fold of each other in AC50: 3.47 µM for the first, 4.71 µM for the second.

Compared with COc1ccc(OC)c(-c2csc(NC(=O)c3ccc(F)cc3)n2)c1, COc1ccc(OC)c(C(=O)CSc2nccc(-c3ccc(Br)cc3)n2)c1 is 5.3-fold lower in AC50: 6.89 µM for the first, 1.31 µM for the second.

Going from O=C(NC12CC3CC(CC(C3)C1)C2)c1ccc(-c2ccccc2Cl)o1 to Cc1nc(Nc2ccc(Cl)cc2Cl)sc1C(=O)Nc1ccccc1, the AC50 rises from 3.81 µM to 11.5 µM (3-fold).

First: CCOC(=S)SCC(=O)Nc1nc(-c2ccc(Br)cc2)cs1
Second: CCn1cc([N+](=O)[O-])c(C(=O)Nc2nc(-c3ccc(C)cc3)c(C)s2)n1
The AC50 of the first is 1.6-fold lower: 3.54 µM for the first, 5.54 µM for the second.

First: Cc1cc2ccccn2c1C(=O)c1ccc([N+](=O)[O-])o1
Second: CCOC(=O)c1c2ccc(OCC(=O)N/N=C/c3ccc(C)cc3)cc2n2ccccc12
The AC50 of the first is 2.1-fold lower: 5.71 µM for the first, 11.8 µM for the second.

COc1cc(OC)cc(C(=O)Nc2ccc(Nc3ccccc3)cc2)c1 and O=C(Nc1ccc(Nc2ccccc2)cc1)c1cc([N+](=O)[O-])ccc1Cl are within 1.5-fold of each other in AC50: 7.41 µM for the first, 10.6 µM for the second.

Cc1cc(C)c2c(c1)/C(=C/C(=O)c1ccc(Br)s1)C(=O)N2 and Cc1cc(C)cc(-n2c(C)cc(/C=C3\C(=N)N4N=C(CC(C)C)SC4=NC3=O)c2C)c1 are within 1.5-fold of each other in AC50: 5.47 µM for the first, 4.82 µM for the second.

Compared with CC(=O)c1ccc(-c2ccc([C@H]3[C@@H]4C=CCC[C@@]4(C)C(=O)N3Cc3ccccc3)c(F)c2)cc1, C[C@@]12CCC=C[C@H]1[C@H](c1ccc(F)c(/C=C/c3ccccc3)c1)N(Cc1ccccc1)C2=O is 1.7-fold higher in AC50: 4.17 µM for the first, 7.18 µM for the second.

Going from COc1cccc(/C=C/c2nc(C#N)c(NCC(C)C)o2)c1 to Cc1cccc(-c2nc(C#N)c(NC3CCCCC3)o2)c1, the AC50 rises from 5.06 µM to 19.4 µM (3.8-fold).

First: CCOC(=O)c1c(C)oc2c(F)c(F)c(F)c(F)c2c1=O
Second: CCN(CC)c1ccc(C(=O)OCc2cc(=O)oc3cc(O)ccc23)cc1
The AC50 of the first is 8-fold lower: 2.02 µM for the first, 16.2 µM for the second.

CCC(C)c1ccc(NC(=O)C2CC3CCC2C3)cc1 (stereo not given) and CC(=O)Nc1ccc(SC[C@H](C)CN2CC[C@H](C(C)(C)C)CCC2=O)cc1 are the same in AC50: 4.98 µM for the first, 4.98 µM for the second.

Cc1ccc(S(=O)(=O)c2c(C)nn(C(C)(C)C)c2OC(=O)c2ccc(Br)o2)cc1 and Cc1cccc(C)c1NS(=O)(=O)c1ccc(NC(=O)c2ccc(Cl)c([N+](=O)[O-])c2)cc1 are within 1.5-fold of each other in AC50: 2.64 µM for the first, 3.66 µM for the second.

First: CC1CCCCN1c1cc(C#N)c(C#N)cc1[N+](=O)[O-] (stereo not given)
Second: N#Cc1c(N)nc2c(c1-c1cccc(O)c1)CCCCCC2
The AC50 of the first is 9.2-fold lower: 1.77 µM for the first, 16.3 µM for the second.

Going from COc1ccc(-c2sc3ccc(N4CCOCC4)cc3c2C#CC(C)(C)O)cc1 to COc1ccc2sc(-c3ccc(SC)cc3)c(C#CC(C)(C)O)c2c1, the AC50 rises from 1.3 µM to 6.66 µM (5.1-fold).

First: C[C@@H]1CC[C@]2(C(=O)O)CC[C@]3(C)C(=CCC4[C@]56CC[C@@](O)(OC5)C(C)(C)C6CC[C@]43C)C2[C@H]1C (stereo not given in full)
Second: CC[C@H](C)[C@H]1O[C@]2(CC[C@@H]1C)C[C@@H]1C[C@@H](CC=C(C)[C@@H](O[C@H]3C[C@H](OC)[C@@H](O[C@H]4C[C@H](OC)[C@@H](O)[C@H](C)O4)[C@H](C)O3)[C@@H](C)C=CC=C3CO[C@@H]4[C@H](O)C(C)=C[C@@H](C(=O)O1)[C@]34O)O2
The AC50 of the first is 3.5-fold higher: 6.19 µM for the first, 1.78 µM for the second.

Going from COc1ccc(CN(CCC(c2ccccc2)c2ccc(OC(C)C)cc2)C(=O)CCl)cc1OC (stereo not given) to COc1cc(CNCCc2c[nH]c3ccccc23)ccc1OCc1ccccc1F, the AC50 rises from 1.67 µM to 3.64 µM (2.2-fold).

Cc1nn(-c2nc3ccccc3s2)c(C)c1Oc1ccccc1O and COc1ccc(/C=C2/C(=O)N(c3nc4ccccc4s3)N=C2CSc2ccc(Cl)cc2)cc1 are within 1.5-fold of each other in AC50: 5.71 µM for the first, 6.5 µM for the second.

CN(C)C(=O)/C(C#N)=C\c1cc(Br)c(Sc2ccc(Cl)cc2)o1 and Cc1ccc(C(=O)N/C(=C\c2ccc(-c3ccc(Br)cc3)o2)C(=O)NCCCN(C)C)cc1 are within 1.5-fold of each other in AC50: 4.46 µM for the first, 4.38 µM for the second.

Going from CC(C)(c1ccccc1)c1ccc(OCCCN2CCNCC2)cc1 to CC(C)(C)c1ccc(Oc2ccc(NC(=O)c3cccs3)cn2)cc1, the AC50 rises from 0.745 µM to 2.88 µM (3.9-fold).

Going from COC(=O)C(Cc1ccc(N(CCCl)CCCl)cc1)N=Cc1ccccc1O (stereo not given) to COc1ccc(N(C(=O)c2ccccc2C)S(=O)(=O)c2cccs2)cc1, the AC50 falls from 2.54 µM to 0.231 µM (11-fold).

Compared with Cc1cc(F)ccc1S(=O)(=O)Nc1ccccc1C(=O)Nc1ccccc1-c1nc2ccccc2[nH]1, O=C(Nc1ccccc1Cc1ccccc1)c1ccccc1NS(=O)(=O)c1ccc(Cl)s1 is 3-fold lower in AC50: 5.51 µM for the first, 1.84 µM for the second.

Compared with Cc1c(O)cccc1C(=O)N[C@@H](CSc1ccccc1)[C@H](O)CN1C[C@H]2CCCC[C@H]2C[C@H]1C(=O)NC(C)(C)C, CC1(C)C(=O)N(c2ccccc2)C1c1ccccc1O (stereo not given) is 2.3-fold lower in AC50: 7.33 µM for the first, 3.25 µM for the second.

Cc1ccccc1N=C(NOCc1ccc(Cl)cc1Cl)c1nonc1N and COc1ccc(OC)c(NC(=O)c2nnn(Cc3ccccc3C)c2N)c1 are within 1.5-fold of each other in AC50: 3.81 µM for the first, 3.61 µM for the second.

Going from COC(=O)c1ccc(/C=C/c2c(-c3ccsc3)sc3ccccc23)cc1 to COc1ccc(-c2nn(-c3ccccc3)cc2C(=O)N(C)CC(=O)Nc2cccc(F)c2)cc1, the AC50 rises from 7.46 µM to 15 µM (2-fold).

Compared with CCN1CCN(C(=S)Nc2sc(C)c(-c3ccccc3)c2C(=O)OC)CC1, S=C(Nc1ccccc1Cl)N1CCCC(c2ccccc2)=N1 is 1.9-fold higher in AC50: 4.72 µM for the first, 8.88 µM for the second.

Going from Fc1ccc(CSc2nc3ccccc3[nH]2)c2ccccc12 to OC(CNCC(c1ccc(Cl)cc1Cl)c1c[nH]c2ccccc12)c1ccccc1 (stereo not given), the AC50 falls from 5.51 µM to 2.88 µM (1.9-fold).

Compared with O=C(NCc1cccnc1)/C(=C/c1ccc(-c2cccc(Cl)c2)o1)S(=O)(=O)c1ccccc1, O=C(Nc1ccc(NC(=S)NC(=O)c2ccccc2Cl)cc1)c1cccc(Cl)c1 is 6.7-fold higher in AC50: 2.66 µM for the first, 17.8 µM for the second.

Going from CCn1c(=O)c(C(=O)NCCc2ccccc2)c(O)c2ccccc21 to Cc1ccc(-n2nnnc2SC(C(=O)c2c[nH]c3ccccc23)c2ccccc2)cc1 (stereo not given), the AC50 falls from 5.62 µM to 3.21 µM (1.8-fold).

CCc1ccc(CNC(=O)C2CCN(c3nnc(C)c4c(C)n(-c5ccc(C)cc5)nc34)CC2)cc1 and CCc1ccc(N2C(=O)NC(=O)/C(=C\C=C\c3ccco3)C2=O)cc1 are within 1.5-fold of each other in AC50: 4.14 µM for the first, 3.72 µM for the second.

CCCCC(=O)NC(c1ccco1)c1cc(Cl)c2cccnc2c1O (stereo not given) and Cc1ccc2nc(N(CCCN(C)C)C(=O)c3cc(-c4cccs4)nc4ccccc34)sc2c1 are within 1.5-fold of each other in AC50: 5.79 µM for the first, 6.4 µM for the second.

O=C(CC1NCCc2ccccc21)Nc1ccc(Oc2ccccc2)cc1 (stereo not given) and O=[N+]([O-])c1ccc(COc2ccc(-c3[nH]ncc3-c3ccccc3)c(O)c2)cc1 are within 1.5-fold of each other in AC50: 7.46 µM for the first, 8.38 µM for the second.

Going from O=C(Nc1cccc(C(F)(F)F)c1)Nc1ccc(N2CCCC2)c(S(=O)(=O)Nc2ccccc2Cl)c1 to O=C1CC(=C(c2ccccc2)c2ccccc2)C(=O)N1CCCCN1CCN(c2cccc(Cl)c2)CC1, the AC50 rises from 1.33 µM to 2.02 µM (1.5-fold).

O=C(Nc1cccc(Cl)c1)c1nc[nH]c1C(=O)NCCCNC(=O)c1[nH]cnc1C(=O)Nc1cccc(Cl)c1 and Oc1ccc(Cl)cc1-c1cc(-c2cccc(Br)c2)n[nH]1 are within 1.5-fold of each other in AC50: 5.33 µM for the first, 6.39 µM for the second.

Going from CC(C)(C)c1ccc(C(=O)NC(=S)Nc2nc3c(s2)CCCC3)cc1 to C/C(=C\c1ccc(C(=O)O)cc1)c1ccc2c(c1)C(C)(C)CCC2(C)C, the AC50 rises from 2.18 µM to 3.7 µM (1.7-fold).

Going from C#CCOCCOCCOCCNc1nc(N2CCN(C(=O)CCCCCCCCCCNC(=O)Cn3cc(C[C@@H](C)O)nn3)CC2)nc(N2CCN(C(=O)CCCCCCCCCCNC(=O)[C@H](CCCCN)n3cc(C[C@@H](C)CC)nn3)CC2)n1 to CCCCCCSc1ccc(-c2nc3cnccn3c2NCCCC)cc1, the AC50 falls from 6.8 µM to 4.07 µM (1.7-fold).

Compared with c1ccc(-c2c(-c3ccccc3)n(Cc3ccco3)c3ncnc(NCCCn4ccnc4)c23)cc1, N#Cc1c(/N=C/N2CCCC2)oc(-c2ccccc2)c1-c1ccccc1 is 2.2-fold lower in AC50: 6.74 µM for the first, 3.02 µM for the second.

First: O=C(C[n+]1ccccc1)NNc1ccccc1
Second: Cc1ccn2c(Nc3ccccc3)c(-c3ccccn3)nc2c1
The AC50 of the first is 2.6-fold lower: 1.78 µM for the first, 4.57 µM for the second.

First: Cc1cc(C(=O)NNc2ccc(F)cc2F)no1
Second: COc1ccc(NS(=O)(=O)c2ccc(O)c(NC(=O)c3cc4c(C)nn(-c5ccc(F)cc5)c4s3)c2)cc1
The AC50 of the first is 1.6-fold lower: 1.6 µM for the first, 2.49 µM for the second.

With CCCCCc1cc(=O)oc2c(C(CCN3CCCC(C)C3)c3ccc4c(c3)OCO4)c(OC)cc(OC)c12 (stereo not given) the AC50 was 6.78 µM.

CN1CCN(c2ccc(NC(=O)c3ccc(Cl)cc3)cn2)CC1 was tested, and the AC50 was > 19.5 µM (inactive).
In the case of O=[N+]([O-])c1ccc(CP(=O)(c2ccccc2)c2ccccc2)cc1, the AC50 is reported as > 19.5 µM (inactive).
In the case of COc1ccc(N(CC(=O)Nc2cc(C)ccc2C)S(=O)(=O)c2c(C)noc2C)cc1, the AC50 is reported as > 19.5 µM (inactive).
With CC(OC(=O)c1cccs1)C(=O)NC1CCCCC1C (stereo not given) the AC50 was > 19.5 µM (inactive).
For CS(=O)(=O)Nc1ccccc1C(=O)Nc1cccc(Cl)c1, the AC50 was > 19.5 µM (inactive).
CCOc1cc(NC(=O)c2ccccn2)c(OCC)cc1NC(=O)c1ccccc1 was tested, and the AC50 was > 19.5 µM (inactive).
In the case of CC(=O)NNc1cccc(Cl)n1, the AC50 is reported as > 19.5 µM (inactive).
With Cn1nc(-c2ccccc2F)c2cc(C(=O)Nc3ccc4c(c3)OCCO4)sc21 the AC50 was > 19.5 µM (inactive).
In the case of O=[N+]([O-])c1ccccc1-c1ccc(C(=S)N2CCN(c3ccccc3)CC2)o1, the AC50 is reported as > 19.5 µM (inactive).
In the case of Nc1ccc2c(c1)Oc1ccccc1C=C2, the AC50 is reported as > 19.5 µM (inactive).
Cc1ccc(-c2nc(CS(=O)CC(=O)NCc3ccc4c(c3)OCO4)c(C)o2)cc1 (stereo not given) was tested, and the AC50 was > 19.5 µM (inactive).
